{"source": "patent US9200082B2", "about": "“Methods and compositions involving fibrillizing polypeptides for nanofibers” (The University of Chicago, priority 2013, dated 2015)", "key": {"C57BL/6 mice": {"system": "C57BL/6 mice", "experiment": "Immunization, anti-GFP Ig isotyping ELISA", "assay_type": "in vivo", "details": "after primary and booster immunizations, serum week 7", "description": "Q11 microgels bearing βTail-GFP or βTail-cut were prepared as described above, except the materials were incubated at 4 deg C., rather than room temperature. GFP content in the microgels was analyzed fluorimetrically as described above, and the concentration of GFP in the microgels was used as the basis for βTail-GFP dose in the PBS group. Similarly, cutinase content in the microgels was analyzed with the μABCA assay kit (Pierce), according to the manufacturer's instructions, and βTail-cut dose in the microgels was used as the basis for βTail-cut dose in PBS group. Endotoxin content of all vaccines was analyzed with the Limulus Amoebocyte Lysate assay kit (Lonza) according to the manufacturer's instructions immediately before immunization, and all materials were below the upper limit of 1 EU/mL. Female C57BL/6 mice (6-8 weeks old, Taconic Farms, Ind.) were each given two 50 μL subcutaneous injections near the shoulder blades for each primary and booster immunization, similar to previously reported methods (Hudalla 2013). […]\nFor all isotyping ELISAs, following overnight coating with 1 μg/mL βTmutant-GFP in PBS or PBS, all plates were washed 3 times with 0.5% Tween-20 in PBS. […] Absorbance was then measured at 450 nm with a SpectraMax M5 plate reader."}, "Q11 microgels": {"system": "Q11 microgels", "experiment": "Q11 microgel fluorescence microscopy", "description": "Lyophilized Q11 was dissolved in deionized water at a final concentration of 10 mM by vortexing for 5 min. Aqueous Q11 solutions were diluted 10-fold with 1×PBS containing GFP (Vector Labs cat# MB-0752), βTmutant-GFP, or one or more βTail fusion proteins at a total protein concentration between 0.25-1.5 μM, or tryptophan-terminated βTail (W-βTail) at a concentration between 10-100 μM. These solutions were then incubated under static conditions for nanofiber assembly, or on a LabNet Rocker 35 rocker table (speed setting 4) (New Jersey) to induce microgel formation.\nQ11 microgel fluorescence was analyzed using a Zeiss Axioscope inverted epifluorescent microscope. Dapi filters were used to visualize βTail-GFPuv; FITC filters were used to visualize βTail-eGFP; and TRITC filters were used to visualize βTail-dsRED. Fluorescence emission of any protein with the inappropriate filter (e.g. βTail-GFPuv with FITC) was negligible (FIG. 5). Due to differences in the quantum efficiency of each protein, exposure time was adjusted until the grayscale image intensity of microgels containing 0.33 μM βTail-GFP, βTail-eGFP, or βTail-dsRED alone was similar (e.g. 0.75 sec for βTail-GFP, 1.5 sec for βTail-eGFP, and 2.5 sec for βTail-dsRED). […]"}}, "data": [{"substance": "βTail-GFP: recombinant fusion of βTail, Gly-Ser linker, GFPuv and His6 expressed in E. coli; SEQ ID NO. 65", "values": [{"measurement": "serum Ig isotype profile", "setting": "C57BL/6 mice", "result": "a more balanced IgM/IgG1 isotype profile"}, {"measurement": "fluorescence (activity) after integration into Q11 nanofibers", "setting": "Q11 microgels", "result": "fluorescence was not perturbed when integrated into Q11 nanofibers"}]}]}
